Measurements from patent US20210308102A1 (priority 2018, published 2021).

What was measured:
Details in all cases: human, in vivo
Presbyopic subjects [1] = test system: Presbyopic subjects
Presbyopic subjects [2] = test system: Presbyopic subjects; remark: listed apart in the source
Presbyopic subjects [3] = test system: Presbyopic subjects; remark: listed apart in the source

## CNC(=O)Oc1ccc2c(c1)[C@]1(C)CCN(C)[C@@H]1N2C [compound 2, physostigmine]
Presbyopic subjects [1]
  duration of eye twitching: 15 min
  duration of eyelid and eyeball twitching: 15 min
  duration of headache: 1 to 2 h
  duration of slightly inflexible eye mobility: 3 to 4 h
  onset of eye twitching: 15 min
  onset of eyelid and eyeball twitching: 15 min
  time until eye irritation disappeared: 10 min
  upper eyelid and eyeball adherence and mobility: The upper eyelid and the eyeball were adhered tightly, and the mobility of the upper eyelid and eyeball was slightly weakened
Presbyopic subjects [2]
  effect on miosis, 0.25% eye drops compared with 1.5% eye drops: more than 1.5% compound 2 eye drops
  time at which efficacy reached the highest level: 2 h
  time at which efficacy was still present: ≥ 6 h
Presbyopic subjects [3]
  improvement of distance corrected near visual acuity, 0.25% eye drops compared with 1.5% eye drops: more than 1.5% compound 2 eye drops

## CN(CCCCCCCCCCN(C)C(=O)Oc1cccc([N+](C)(C)C)c1)C(=O)Oc1cccc([N+](C)(C)C)c1 [compound 3, Demecarium bromide]
Presbyopic subjects [1]
  duration of eye discomfort and conjunctival congestion: 2 to 3 days
  ocular tolerance: Half of the subjects began to suffer from eye discomfort and conjunctival congestion after several hours
  share of the subjects with no eye discomfort: half

## CN(C)C(=O)Oc1cccc([N+](C)(C)C)c1 [compound 1, neostigmine]
Presbyopic subjects [1]
  share of the subjects with no tolerance problems: One third
  time until symptoms gradually alleviated: 30 min
